# Test results: PMC9501810, “Bitter Peptides YFYPEL, [sequence], and [sequence], Released during Gastric Digestion of Casein, Stimulate Mechanisms of Gastric Acid Secretion via Bitter Taste Receptors TAS2R16 and TAS2R38” (Journal of Agricultural and Food Chemistry, 2022)
# What was measured:
# Assay type in all cases: cell-based, human
# [1] = system: TAS2R13; assay: RT-qPCR gene expression of TAS2R13 in HGT-1 cells; conditions: VAPFPEVF 17.5 µM, YFYPEL 0.03 µM, YQEPVLGPVRGPFPIIV 0.4 µM, normalized to PPIA and GAPDH and untreated cells, mean, n = 3–5
# Method: (§1) For mRNA expression analysis, 800,000 cells were seeded in a T25 cell culture flask (25 cm^2) 1 day before the experiment. After incubation with 17.5 μM […], 0.03 μM YFYPEL, or 0.4 μM […] for 15, 30, 60, and 120 min, RNA was isolated using the peqGOLD RNA Kit (VWR Peqlab, USA) following the manufacturer’s protocol. Determination of RNA concentration (A260/A280 between 2.03 and 2.09) was performed on a NanoDrop One^c (Thermo Fisher Scientific Inc., USA). RNA integrity number (RIN 9.9–10.0, version 2.6, assay class Eukaryote Total RNA Nano) was analyzed using a 2100 Bioanalyzer (Agilent Technologies, USA). Removal of gDNA and synthesis of cDNA were performed using the iScript gDNA Clear cDNA Synthesis Kit (BioRad, Feldkirchen, Germany) following the manufacturer’s protocol. Real-time-qPCR (RT-qPCR) was performed with 50 ng cDNA amplified with SsoAdvanced Universal SYBR Green Supermix (Bio-Rad Laboratories, Inc., USA). The sequences of the forward and reverse primers of the 25 TAS2Rs were taken from Liszt et al.([13]) (Supporting Information Table-SI 3). Verified primers for the TAS1Rs (TAS1R1: qHsaCID0013443; TAS1R2: qHsaCID0016106; TAS1R3: qHsaCED0002321) and for MAPK1 (qHsaCEP0050000) were obtained from Bio-Rad Laboratories. PPIA[37] and GAPDH[38] were used as reference genes. The effects of the peptides on gene expression were analyzed in comparison to untreated control cells.
# [2] = system: TAS2R9; assay: RT-qPCR gene expression of TAS2R9 in HGT-1 cells; conditions: VAPFPEVF 17.5 µM, YFYPEL 0.03 µM, YQEPVLGPVRGPFPIIV 0.4 µM, normalized to PPIA and GAPDH and untreated cells, mean, n = 3–5
# Method: as §1
# [3] = system: TAS2R40; assay: RT-qPCR gene expression of TAS2R40 in HGT-1 cells; conditions: VAPFPEVF 17.5 µM, YFYPEL 0.03 µM, YQEPVLGPVRGPFPIIV 0.4 µM, normalized to PPIA and GAPDH and untreated cells, mean, n = 3–5
# Method: as §1
# [4] = system: TAS2R16; assay: Proton secretion assay in TAS2R16 knock-down vs mock-transfected HGT-1 cells; conditions: TAS2R16kd vs mock-transfected HGT-1 cells, VAPFPEVF 17.5 µM, YFYPEL 0.03 µM, YQEPVLGPVRGPFPIIV 0.4 µM, 10 min, mean ± SEM; for decrease of the peptide-induced increase in proton secretion activity in TAS2R16kd cells: 72 h after 10 nM siRNA; for change of peptide-induced proton secretion, TAS2R16kd (Figure 5B–D): negative = reduction
# Method: The measurement of proton secretion from HGT-1 cells represents a well-established model for the identification of bitter compounds. By affecting extraoral bitter taste receptors with bitter compounds, a modulatory effect on proton secretion can be measured. For this purpose, cells were washed with KRHB and incubated with 3 μM of the intracellular pH indicator 1,5 carboxy-seminaphto-rhodafluor acetoxymethyl ester (SNARF-1-AM) under standard conditions. After 30 min, the cells were washed again with KRHB and then incubated with casein (0.01–10 μM equimolar related to the relevant forms αS1- and β-casein), hydrolysate (0.01–10 μM), or the peptides (0.01–200 μM). […] All substances were dissolved and diluted in KRHB. 1 mM histamine was used as a positive control. Measurements were performed using FlexStation 3 (Molecular Devices, USA). The excitation wavelength was 488 nm, and the emission wavelengths were 580 and 640 nm. For calibration (pH range 7.0–8.0), the intracellular and extracellular pH was adjusted with 2 μM nigericin in potassium buffer (20 mM NaCl, 110 mM KCl, 1 mM CaCl2, 1 mM MgSO4, 18 mM D-glucose, and 20 mM HEPES). The intracellular proton index (IPX) was calculated as the log2 value of the 580/640 ratio and compared with cells without treatment. Negative values represent increased secretion of protons and therefore stimulation of mechanisms regulating gastric acid secretion in HGT-1 cells. In contrast, positive values represent an inhibition of secretion compared to the untreated control.
# Expression of TAS2R16 and TAS2R38 was reduced by treatment of HGT-1 cells with siRNA. 100,000 cells per well were seeded 1 day before the experiment into a 24-well plate. All reagents and siRNA were purchased from Thermo Fisher Scientific, USA (cytotoxicity was excluded by MTT). Transfection was performed with Lipofectamine RNAiMAX in Opti-Medium according to the manufacturer’s protocol. 1–50 nM of different siRNA sequences (HSS121396 and HSS181763 for TAS2R16 and HSS108754 and HSS108756 for TAS2R38) and three different incubation times (24, 48, and 72 h) were tested. Mock control experiments were performed analogously with 1 or 10 nM Stealth RNAi siRNA negative control. To verify the functionality of the transfection process, verified 10 nM siRNA targeting MAPK1 (VHS40312) was used (positive control). The transfection rate was checked by qPCR as described in section 2.11. For the proton secretion assays, 20,000 cells per well were seeded 1 day before transfection into a black 96-well plate. After 72 h of transfection, proton secretion activities of TAS2R16 knock-down or TAS2R38 knock-down HGT-1 were compared with the mock transfected cells by means of ΔIPX.
# [5] = system: TAS2R43; assay: RT-qPCR gene expression of TAS2R43 in HGT-1 cells; conditions: VAPFPEVF 17.5 µM, YFYPEL 0.03 µM, YQEPVLGPVRGPFPIIV 0.4 µM, normalized to PPIA and GAPDH and untreated cells, mean, n = 3–5
# Method: as §1
# [6] = system: TAS2R8; assay: RT-qPCR gene expression of TAS2R8 in HGT-1 cells; conditions: VAPFPEVF 17.5 µM, YFYPEL 0.03 µM, YQEPVLGPVRGPFPIIV 0.4 µM, normalized to PPIA and GAPDH and untreated cells, mean, n = 3–5
# Method: as §1
# [7] = system: TAS2R60; assay: RT-qPCR gene expression of TAS2R60 in HGT-1 cells; conditions: incubation 15/30/60/120 min, VAPFPEVF 17.5 µM, YFYPEL 0.03 µM, YQEPVLGPVRGPFPIIV 0.4 µM, expression not detectable with or without treatment
# Method: as §1
# [8] = system: TAS2R46; assay: RT-qPCR gene expression of TAS2R46 in HGT-1 cells; conditions: VAPFPEVF 17.5 µM, YFYPEL 0.03 µM, YQEPVLGPVRGPFPIIV 0.4 µM, normalized to PPIA and GAPDH and untreated cells, mean, n = 3–5
# Method: as §1
# [9] = system: TAS2R39; assay: RT-qPCR gene expression of TAS2R39 in HGT-1 cells; conditions: VAPFPEVF 17.5 µM, YFYPEL 0.03 µM, YQEPVLGPVRGPFPIIV 0.4 µM, normalized to PPIA and GAPDH and untreated cells, mean, n = 3–5
# Method: as §1
# [10] = system: TAS2R19; assay: RT-qPCR gene expression of TAS2R19 in HGT-1 cells; conditions: VAPFPEVF 17.5 µM, YFYPEL 0.03 µM, YQEPVLGPVRGPFPIIV 0.4 µM, normalized to PPIA and GAPDH and untreated cells, mean, n = 3–5
# Method: as §1
Substance,change in gene expression of TAS2R13 ([1]; incubation 15 min) [fold change],change in gene expression of TAS2R13 ([1]; incubation 30 min) [fold change],change in gene expression of TAS2R13 ([1]; incubation 60 min) [fold change],change in gene expression of TAS2R13 ([1]; incubation 120 min) [fold change],change in gene expression of TAS2R9 ([2]; incubation 15 min) [fold change],change in gene expression of TAS2R9 ([2]; incubation 30 min) [fold change],change in gene expression of TAS2R9 ([2]; incubation 60 min) [fold change],change in gene expression of TAS2R9 ([2]; incubation 120 min) [fold change],change in gene expression of TAS2R40 ([3]; incubation 15 min) [fold change],change in gene expression of TAS2R40 ([3]; incubation 30 min) [fold change],change in gene expression of TAS2R40 ([3]; incubation 60 min) [fold change],change in gene expression of TAS2R40 ([3]; incubation 120 min) [fold change],decrease of the peptide-induced increase in proton secretion activity in TAS2R16kd cells [4] [%],"change of peptide-induced proton secretion, TAS2R16kd (Figure 5B–D) [4] [%]",change in gene expression of TAS2R43 ([5]; incubation 15 min) [fold change],change in gene expression of TAS2R43 ([5]; incubation 30 min) [fold change],change in gene expression of TAS2R43 ([5]; incubation 60 min) [fold change],change in gene expression of TAS2R43 ([5]; incubation 120 min) [fold change],change in gene expression of TAS2R8 ([6]; incubation 15 min) [fold change],change in gene expression of TAS2R8 ([6]; incubation 30 min) [fold change],also measured
YFYPEL [bitter casein peptide αS1-CN144–149],1.14,0.53,0.78,0.88,0.66,2.64,3.01,1.41,1.90,0.82,0.59,0.75,86.3 ± 9.9,-86.3 ±9.9,1.49,0.64,0.91,1.02,1.62,1.90,change in gene expression of TAS2R8 ([6]; incubation 60 min): 1.87 fold change; change in gene expression of TAS2R8 ([6]; incubation 120 min): 1.69 fold change; change in gene expression of TAS2R60 [7]: not detected; change in gene expression of TAS2R46 ([8]; incubation 15 min): 1.70 fold change; change in gene expression of TAS2R46 ([8]; incubation 30 min): 0.73 fold change; change in gene expression of TAS2R46 ([8]; incubation 60 min): 1.01 fold change; change in gene expression of TAS2R46 ([8]; incubation 120 min): 1.30 fold change; change in gene expression of TAS2R39 ([9]; incubation 15 min): 1.21 fold change; change in gene expression of TAS2R39 ([9]; incubation 30 min): 0.42 fold change; change in gene expression of TAS2R39 ([9]; incubation 60 min): 0.62 fold change; change in gene expression of TAS2R39 ([9]; incubation 120 min): 0.45 fold change; change in gene expression of TAS2R19 ([10]; incubation 15 min): 1.60 fold change; change in gene expression of TAS2R19 ([10]; incubation 30 min): 0.82 fold change; change in gene expression of TAS2R19 ([10]; incubation 60 min): 0.79 fold change; change in gene expression of TAS2R19 ([10]; incubation 120 min): 1.05 fold change
YQEPVLGPVRGPFPIIV [bitter casein peptide βA1/A2-CN193–209],0.70,1.65,1.16,1.31,0.43,0.44,1.91,0.73,0.92,1.78,0.96,0.86,76.6 ± 9.9,-76.6 ±9.9,0.69,1.44,1.15,0.88,1.39,2.45,change in gene expression of TAS2R8 ([6]; incubation 60 min): 1.87 fold change; change in gene expression of TAS2R8 ([6]; incubation 120 min): 1.93 fold change; change in gene expression of TAS2R60 [7]: not detected; change in gene expression of TAS2R46 ([8]; incubation 15 min): 0.69 fold change; change in gene expression of TAS2R46 ([8]; incubation 30 min): 1.73 fold change; change in gene expression of TAS2R46 ([8]; incubation 60 min): 1.30 fold change; change in gene expression of TAS2R46 ([8]; incubation 120 min): 1.06 fold change; change in gene expression of TAS2R39 ([9]; incubation 15 min): 0.53 fold change; change in gene expression of TAS2R39 ([9]; incubation 30 min): 1.16 fold change; change in gene expression of TAS2R39 ([9]; incubation 60 min): 0.73 fold change; change in gene expression of TAS2R39 ([9]; incubation 120 min): 0.53 fold change; change in gene expression of TAS2R19 ([10]; incubation 15 min): 0.85 fold change; change in gene expression of TAS2R19 ([10]; incubation 30 min): 1.58 fold change; change in gene expression of TAS2R19 ([10]; incubation 60 min): 1.27 fold change; change in gene expression of TAS2R19 ([10]; incubation 120 min): 1.05 fold change
